For eight compounds, IC50 results are on record in patent US9422331B2, “2-oxo-2,3,4,5-tetrahydro-1 H-benzo[B]diazepines and their use in the treatment of cancer” (Hoffmann-La Roche Inc., priority 2012, dated 2016).

pIC50: −log10 of the molar value. Structures can show the parent of a compound that is named as a salt. Where two headings read alike, the source gives them in different places. Where only a bound is given, the exact number is not on record here.

The term pIC50 denotes −log10 of the IC50, conventionally taken in molar units. A higher pIC50 goes with a small IC50.

For one assay, the target named is BIR3 domain of XIAP (Homo sapiens (Human), UniProt P98170). Description: TR-FRET assay for BIR3: inhibition of binding of XIAP BIR3 domain to Peptide A (SMAC-derived peptide). (In general: TR-FRET usually uses a lanthanide donor and a delayed reading to cut background.)
Chain of BIR3 domain of XIAP (P98170 241-356): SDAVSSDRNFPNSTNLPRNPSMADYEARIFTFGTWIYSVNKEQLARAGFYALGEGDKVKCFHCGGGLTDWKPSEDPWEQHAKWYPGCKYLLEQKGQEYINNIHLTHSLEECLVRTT
For the next assay, the target named is BIR2 domain of XIAP (Homo sapiens (Human), UniProt P98170, C202A/C213G). Description: TR-FRET assay for BIR2: inhibition of binding of XIAP BIR2 domain to Peptide A (SMAC-derived peptide).
Chain of BIR2 domain of XIAP (P98170 124-240 C202A/C213G): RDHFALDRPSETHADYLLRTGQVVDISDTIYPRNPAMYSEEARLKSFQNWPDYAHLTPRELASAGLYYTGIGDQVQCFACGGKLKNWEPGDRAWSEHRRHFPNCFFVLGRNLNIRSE
[1] abbreviates: 6x Histidine-tagged BIR3 domain (amino acids 241-356 of XIAP), 10 nM, 20 nM peptide AVPIAQKSEK-(ε-biotin)-OH, TR-FRET.
Where [2] appears, read: 6x Histidine-tagged BIR2 domain (amino acids 124-240 of XIAP), 10 nM, 20 nM peptide AVPIAQKSEK-(ε-biotin)-OH, TR-FRET.

For the compound `CN[C@@H](C)C(=O)N[C@@H]1C(=O)N(Cc2nn(-c3ccccc3C#N)c3ccccc23)c2ccccc2N(C(=O)c2ccc(C(C)=O)cc2)[C@H]1C` [Example 3, (S)-N-{(2S,3S)-1-(4-acetyl-benzoyl)-5-[1-(2-cyano-phenyl)-1H-indazol-3-ylmethyl]-2-methyl-4-oxo-2,3,4,5-tetrahydro-1H-benzo[b][1,4]diazepin-3-yl}-2-methylamino-propionamide hydrochloride], the pIC50 on BIR3 domain of XIAP (setting [1]) was under 4.26; at BIR2 domain of XIAP (setting [2]), 7.92.
As to `CN[C@@H](C)C(=O)N[C@@H]1C(=O)N(Cc2ccnc3ccccc23)c2ccccc2N(C(=O)CS(C)(=O)=O)[C@H]1C` [Example 16, (S)-N-((2S,3S)-2-Methyl-1-(2-(methylsulfonyl)acetyl)-4-oxo-5-(quinolin-4-ylmethyl)-2,3,4,5-tetrahydro-1H-benzo[b][1,4]diazepin-3-yl)-2-(methylamino)propanamide hydrochloride], the pIC50 on BIR3 domain of XIAP is under 4.26; on BIR2 domain of XIAP, 6.75.
`CN[C@@H](C)C(=O)N[C@@H]1C(=O)N(Cc2nn(-c3ccccc3C#N)c3ccccc23)c2ccccc2N(C(C)=O)[C@H]1C` [Example 19, (S)-N-((2S,3S)-1-Acetyl-5-((1-(2-cyanophenyl)-1H-indazol-3-yl)methyl)-2-methyl-4-oxo-2,3,4,5-tetrahydro-1H-benzo[b][1,4]diazepin-3-yl)-2-(methylamino)propanamide]: the pIC50 on BIR3 domain of XIAP (setting [1]) is under 4.26; at BIR2 domain of XIAP (setting [2]), 7.36.
Consider `CN[C@@H](C)C(=O)N[C@@H]1C(=O)N(Cc2c(C)cnc3ccccc23)c2ccccc2N(C(C)=O)[C@H]1C` [Example 20, (S)-N-((2S,3S)-1-Acetyl-2-methyl-5-((3-methylquinolin-4-yl)methyl)-4-oxo-2,3,4,5-tetrahydro-1H-benzo[b][1,4]diazepin-3-yl)-2-(methylamino)propanamide dihydrochloride], for which the pIC50 on BIR3 domain of XIAP is under 4.26; at BIR2 domain of XIAP, 7.26.
`CCN[C@@H](C)C(=O)N[C@@H]1C(=O)N(Cc2c(C)ccc3ccccc23)c2ccc(C#N)cc2N(C(=O)CS(C)(=O)=O)[C@H]1C` [Example 28, (S)-N-((3S,4S)-7-Cyano-4-methyl-1-((2-methylnaphthalen-1-yl)methyl)-5-(2-(methylsulfonyl)acetyl)-2-oxo-2,3,4,5-tetrahydro-1H-benzo[b][1,4]diazepin-3-yl)-2-(ethylamino)propanamide hydrochloride]: the pIC50 on BIR3 domain of XIAP is under 4.26; on BIR2 domain of XIAP, 7.12.
With `CN[C@@H](C)C(=O)N[C@@H]1C(=O)N(Cc2cc(=O)oc3cc(Cl)ccc23)c2ccccc2N(C(=O)CS(C)(=O)=O)[C@H]1C` [Example 40, (S)-N-((3S,4S)-1-((7-chloro-2-oxo-2H-chromen-4-yl)methyl)-4-methyl-5-(2-(methylsulfonyl)acetyl)-2-oxo-2,3,4,5-tetrahydro-1H-benzo[b][1,4]diazepin-3-yl)-2-(methylamino)propanamide 2,2,2-trifluoroacetate], the pIC50 at BIR3 domain of XIAP is under 4.26; on BIR2 domain of XIAP, 6.45.
As for `CN[C@@H](C)C(=O)N[C@@H]1C(=O)N(Cc2noc3cc(Br)ccc23)c2ccccc2N(C(=O)CS(C)(=O)=O)[C@H]1C` [Example 41, (S)-N-((3S,4S)-1-((6-bromobenzo[d]isoxazol-3-yl)methyl)-4-methyl-5-(2-(methylsulfonyl)acetyl)-2-oxo-2,3,4,5-tetrahydro-1H-benzo[b][1,4]diazepin-3-yl)-2-(methylamino)propanamide 2,2,2-trifluoroacetate], the pIC50 is under 4.26 at BIR3 domain of XIAP and 6.38 on BIR2 domain of XIAP.
As for `CN[C@@H](C)C(=O)N[C@@H]1C(=O)N(Cc2nn(-c3ccccc3C#N)c3ccccc23)c2ccc(C#N)cc2N(C(=O)CS(C)(=O)=O)[C@H]1C` [Example 53, (S)-N-((3S,4S)-7-cyano-1-((1-(2-cyanophenyl)-1H-indazol-3-yl)methyl)-4-methyl-5-(2-(methylsulfonyl)acetyl)-2-oxo-2,3,4,5-tetrahydro-1H-benzo[b][1,4]diazepin-3-yl)-2-(methylamino)propanamide 2,2,2-trifluoroacetate], the pIC50 on BIR3 domain of XIAP was under 4.26; at BIR2 domain of XIAP, 7.48.
